Data on one compound can be found in publication PMC6723352, “Exploring Structure-Activity Relationship in Tacrine-Squaramide Derivatives as Potent Cholinesterase Inhibitors” (Biomolecules, 2019).

Data set [1] addresses hBChE (Homo sapiens, UniProt P06276). Description: Kinetic study of BChE inhibition. The data set is classed as biochemical. The procedure: Kinetic study was performed in order to describe the interactions of the compounds 4b and 3e with hAChE and hBChE, respectively. Inhibition kinetics were elucidated from velocity curves that were measured at several concentrations of the corresponding substrate (AChE—acetylthiocholine, BChE—butyrylthiocholine) and tested compounds. The type of enzyme inhibition and corresponding kinetic parameters (Ki and Ki’) were determined by nonlinear regression analysis. Results for each type model of inhibition (competitive, non-competitive, uncompetitive and mixed) were compared by sum-of-squares F-test. […].
The kinetic study of AChE and BChE was performed by using the above-mentioned modified Ellman’s method. The values of Vmax and Km of the Michaelis-Menten kinetics as well as the values of Ki and Ki’ were calculated by nonlinear regression from the substrate velocity curves. Linear regression was used for calculation of Lineweaver-Burk plots. All calculations were performed using GraphPad Prism software version 6.07 for Windows (San Diego, CA, USA).

Data set [2] is described as follows: in vitro. The following applies: human. The procedure: The human origin cell line HepG2 (ATCC, Mannassas, VA, USA) isolated from liver hepatocellular carcinoma was used to evaluate cytotoxicity of tested compounds. The cells were cultivated in Dublecco’s modified Eagle’s medium (DMEM; Biosera, Nuaille, France) supplemented with 10% fetal bovine serum (Biosera) and 1% penicillin-streptomycin antibiotic solution (Sigma-Aldrich, St. Louis, MO, USA), incubated at 37 °C in a CO2 incubator (Binder CO2 incubator BC 160, Tuttlingen, Germany) and routinely passaged by trypsinization at 75–85% confluence.
The final concentration of DMSO was less than 0.25% per well.
After 24-h incubation, the medium containing serially diluted substances was aspirated from each well and replaced by 100 µL of fresh medium containing MTT (0.5 mg/mL). Plates were subsequently incubated at 37 °C in CO2 incubator for 45 min. The medium containing MTT was then aspirated and formazan dissolved in 100 μL of DMSO. The optical density of each well was measured using Synergy 2 Multi-Mode Microplate Reader (BioTek Instruments, Inc., Winooski, VT, USA) at 570 nm. The cell viability was expressed as the percentage of untreated control. Each experiment was performed in triplicate and repeated three independent times.
The IC50 values were expressed as a mean ± standard error of the mean (SEM).

Data set [3] deals with T1, human AChE (hAChE), recombinant acetylcholinesterase (Homo sapiens, UniProt P22303).
T1 construct: made in house
In words: hAChE inhibition, modified Ellman's method. The data set is classed as biochemical. On the procedure: Three series of tacrine-squaramide homodimers were tested for their inhibitory potential against human AChE (hAChE) and human BChE (hBChE) enzymes using modified spectrophotometric method of Ellman et al.. THA, 6-Cl-THA and 7-MEOTA were used as reference compounds. […].
(§1) Human plasmatic butyrylcholinesterase (BChE; EC 3.1.1.8) and recombinant acetylcholinesterase (AChE; 3.1.1.7) were prepared at the Department of Toxicology and Military Pharmacy. 5,5′-dithiobis(2-nitrobenzoic acid) (Ellman’s reagent, DTNB), phosphate buffer (PB, pH 7.4), acetylthiocholine (ATC) and butyrylthiocholine (BTC), were purchased from Sigma-Aldrich, Prague, Czech Republic. For measuring purposes – polystyrene Nunc 96-well microplates with flat bottom shape (ThermoFisher Scientific, USA) were utilized.
(§2) All the assays were carried out in 0.1 M KH2PO4/K2HPO4 buffer, pH 7.4. Enzyme solutions were prepared at 2.0 units/mL in 2 mL aliquots. The assay medium (100 µL) consisted of 40 µL of 0.1 M phosphate buffer (pH 7.4), 20 µL of 0.01 M DTNB, 10 µL of the enzyme, and 20 µL of 0.01 M substrate (ATC/BTC iodide solution).
(§3) Tested compounds were preincubated for 5 min. The reaction was started by immediate addition of 20 µL of the substrate. The activity was determined by measuring the increase in absorbance at 412 for AChE/BChE at 37 °C at 2 min intervals - using a Multi-mode microplate reader Synergy 2 (Winooski, VT, USA). Each concentration was assayed in triplicate. Software GraphPad Prizm 5 (San Diego, CA, USA) was used for the statistical data evaluation.

In data set [4] the target is human BChE (hBChE), human plasmatic butyrylcholinesterase (Homo sapiens, UniProt P06276). In words: hBChE inhibition, modified Ellman's method. Type of data set: biochemical. The procedure: Three series of tacrine-squaramide homodimers were tested for their inhibitory potential against human AChE (hAChE) and human BChE (hBChE) enzymes using modified spectrophotometric method of Ellman et al.. THA, 6-Cl-THA and 7-MEOTA were used as reference compounds.
as §1, §2, §3
On the technique in general: DTNB colorimetry detects thiols as they appear.

The text on data set [5]:
An important feature for drugs targeting the brain is their ability to cross the BBB. The parallel artificial membrane permeability assay (PAMPA) is a high-throughput screening tool applicable for prediction of passive transport across BBB [57]. […] These include mainly (i) the different composition of the human phospholipid bilayer may cause deviation in predicted permeability, (ii) omitting the absorption of compounds that are actively transported by influx transporters and pumped-out by various efflux mechanisms with the glycoprotein P at the forefront or (iii) transport through the paracellular route which is mostly exploited by small […] molecules. Even considering these drawbacks, PAMPA-BBB is conceived as very simple but powerful tool for BBB prediction.
PAMPA (the parallel artificial membrane permeability assay) is a high-throughput screening tool applicable for prediction of the passive transport of potential drugs across the blood-brain barrier (BBB). In this study, it has been used as a non-cell-based in vitro assay carried out in a coated 96-well membrane filter. The filter membrane of the donor plate was coated with PBL (Polar Brain Lipid, Avanti, USA) in dodecane (4 µl of 20 mg/mL PBL in dodecane) and the acceptor well was filled with 300 µl of phosphate buffer saline, (PBS pH 7.4; VA). The tested compounds were dissolved first in DMSO and then diluted with PBS pH 7.4 to reach the final concentrations 50–500 µM in the donor well. […] In principle, test compound diffuse from the donor well through the polar brain lipid membrane (area = 0.28 cm^2) to the acceptor well. The concentration of the tested compound in both donor and the acceptor wells were assessed after 3, 4, 5 and 6 h of incubation in quadruplicate using the UV plate reader Synergy HT (Biotek, USA) at the maximum absorption wavelength of each compound (n = 3). Besides that, the solution of theoretical compound concentration, simulating the equilibrium state, established if the membrane was ideally permeable was prepared and assessed as well.

Chain of hBChE (P06276 29-602): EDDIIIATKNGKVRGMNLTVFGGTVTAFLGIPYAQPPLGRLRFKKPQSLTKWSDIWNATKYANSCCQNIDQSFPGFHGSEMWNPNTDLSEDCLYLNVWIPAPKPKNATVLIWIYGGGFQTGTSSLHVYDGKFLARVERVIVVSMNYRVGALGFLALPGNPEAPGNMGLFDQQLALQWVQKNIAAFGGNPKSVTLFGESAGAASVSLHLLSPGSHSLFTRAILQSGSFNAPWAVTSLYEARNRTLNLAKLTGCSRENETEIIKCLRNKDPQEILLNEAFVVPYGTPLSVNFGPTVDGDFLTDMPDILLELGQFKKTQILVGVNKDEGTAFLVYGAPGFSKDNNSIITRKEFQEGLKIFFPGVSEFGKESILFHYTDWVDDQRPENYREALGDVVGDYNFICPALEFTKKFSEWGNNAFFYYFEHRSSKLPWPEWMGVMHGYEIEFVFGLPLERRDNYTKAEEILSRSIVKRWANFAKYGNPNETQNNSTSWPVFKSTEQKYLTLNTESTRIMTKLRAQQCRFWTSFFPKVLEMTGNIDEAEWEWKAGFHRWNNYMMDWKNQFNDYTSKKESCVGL
T1 sequence (P22303 32-614): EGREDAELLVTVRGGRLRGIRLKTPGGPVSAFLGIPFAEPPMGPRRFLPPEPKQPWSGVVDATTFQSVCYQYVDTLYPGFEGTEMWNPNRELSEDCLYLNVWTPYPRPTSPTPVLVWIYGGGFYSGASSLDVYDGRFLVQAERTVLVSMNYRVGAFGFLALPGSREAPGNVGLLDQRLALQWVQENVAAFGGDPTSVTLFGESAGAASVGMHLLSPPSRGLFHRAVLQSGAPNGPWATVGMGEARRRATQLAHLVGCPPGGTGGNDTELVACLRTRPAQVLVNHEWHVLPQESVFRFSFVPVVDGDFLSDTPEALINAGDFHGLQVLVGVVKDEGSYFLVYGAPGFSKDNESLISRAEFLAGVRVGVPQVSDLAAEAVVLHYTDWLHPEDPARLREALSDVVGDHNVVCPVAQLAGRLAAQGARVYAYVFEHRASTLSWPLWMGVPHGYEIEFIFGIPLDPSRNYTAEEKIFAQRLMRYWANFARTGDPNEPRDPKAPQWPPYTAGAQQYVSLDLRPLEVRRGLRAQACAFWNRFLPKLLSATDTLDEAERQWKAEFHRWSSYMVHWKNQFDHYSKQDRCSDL
Chain of human BChE (hBChE), human plasmatic butyrylcholinesterase (P06276 29-602): as the sequence (P06276 29-602) above

One may read the Ki as a measure of affinity in units of concentration, obtained from inhibition or displacement. Low readings indicate a stronger hold on the target, high ones a looser hold on the target. The term IC50 denotes the point on the concentration scale where inhibition reaches its midpoint. Consider `O=c1c(NCCCCCCNc2c3c(nc4ccccc24)CCCC3)c(NCCCCCCNc2c3c(nc4ccccc24)CCCC3)c1=O` [Compound 3e, Bis({6-[(1,2,3,4-tetrahydroacridin-9-yl)amino]hexyl}amino)cyclobut-3-ene-1,2-dione], for which the “Ki'” value in data set [1] (binding to enzyme-substrate complex, substrate butyrylthiocholine) is 100 ± 28 nM. The compound also returned a Ki in data set [1] (binding to free enzyme, substrate butyrylthiocholine) of 8.1 ± 1.9 nM. The type of inhibition result in data set [1] (nonlinear regression, sum-of-squares F-test, p < 0.05) is on record as “mixed type of inhibition”. The IC50 at 24 h in data set [2] stood at 76000 nM. Moreover, the results for the IC50 in data set [3] and in data set [4] were 13 nM and 21 nM, respectively. In data set [3] (ratio IC50(hBChE)/IC50(hAChE)), the “SI (selectivity index for hAChE)” value is reported as 1.6. In addition, in data set [5] (PAMPA, PBS pH 7.4), the Pe stood at 2.6 ×10⁻⁶ cm/s. The “BBB permeation prediction in words” value in data set [5] (PAMPA-BBB) was “uncertain BBB permeation”. In data set [5] (class from Pe), the “CNS (+/−) predicted BBB permeation” value was “CNS +/− (CNS +/−: BBB permeation uncertain with Pe (10^−6 cm·s^−1) from 4.0 to 2.0)”.
